Source: article PMC8063180 (Cell Reports. Physical Science, 2021)
≈ marks a conversion by molar mass, not a printed value. Blank lines part the entries; values can stand above or below the molecule they belong to. Peptide text beside a SMILES is read from it.

Assays:
Dynamic light scattering = format: physicochemical; conditions: pH 6.8, room temperature
[1] = format: physicochemical; conditions: for Effect of polyphenols (EGCG, TA, RA) on critical soluble concentration: increasing inhibitor ratio, dose-dependent
physchem = format: physicochemical; conditions: for Fold lower critical concentration compared with AFA: at the highest measured temperature
[2] = aqueous solution; cited from earlier work
[3] = pH 6.8, Water solubility (critical soluble concentration), pure water, room temperature, pH 6.8
[4] = water, room temperature, pH 6.8

- DLS cluster size (Dynamic light scattering; 100 mM in water): approximately 4,000 nm
- DLS cluster size (Dynamic light scattering; above 40 mM in water): remained constant
- Effect of polyphenols (EGCG, TA, RA) on critical soluble concentration [1]: significant increase
- Fold increase of solubility by TA ([1]; peptide:TA 1:2, versus no inhibitor): 3 fold
- Fold lower critical concentration compared with AFA (physchem): ~6 fold
- solubility at 2 min (physchem; [3]): 105 mM (≈ 32.3 mg/mL)
Compound: C[C@H](N)C(=O)N[C@@H](C)C(=O)N[C@@H](Cc1ccccc1)C(=O)O [AAF] (H-Ala-Ala-Phe-OH)

- DLS cluster size (Dynamic light scattering; 100 mM in water): persisted
- DLS cluster size (Dynamic light scattering; above 40 mM in water): remained constant
- Effect of inhibitors (EGCG, TA, RA) on solubility ([1]; molar ratios 1:0.1–1:0.3): unable to significantly alter
- solubility (physchem; Water solubility, water, 70°C): 702 mM (≈ 216 mg/mL)
- solubility (physchem; Water solubility, water, 90°C): 720 mM (≈ 221 mg/mL)
- solubility (physchem; Water solubility, water, near the boiling point of water): 710 mM (≈ 218 mg/mL)
- Minimal critical concentration (physchem; around pH 6–7, room temperature): 668 mM
- solubility (physchem; [3]): 672 mM (≈ 207 mg/mL)
- Water solubility (physchem; pH approaching the pKa value of either terminus, room temperature): 672 mM
- Fold higher solubility compared with AAF (physchem; [4]): 6 fold
- Fold higher solubility compared with FAA (physchem; [4]): 15 fold
Compound: C[C@H](N)C(=O)N[C@@H](Cc1ccccc1)C(=O)N[C@@H](C)C(=O)O [AFA, Ala-Phe-Ala] (H-Ala-Phe-Ala-OH)
- Reported critical concentration [2]: up to 10 mM

- solubility (physchem; [3]): 98.3 mM (≈ 37.7 mg/mL)
- Fold higher solubility compared with GFF (physchem; [4]): 6 fold
Compound: C[C@H](N)C(=O)N[C@@H](Cc1ccccc1)C(=O)N[C@@H](Cc1ccccc1)C(=O)O [AFF, reference compound] (H-Ala-Phe-Phe-OH)

- DLS cluster size (Dynamic light scattering; above 40 mM in water): approximately 2000 nm
- Effect of polyphenols (EGCG, TA, RA) on critical soluble concentration [1]: significant increase
- Fold lower critical concentration compared with AFA (physchem): ~15 fold
- solubility (physchem; [3]): 42 mM (≈ 12.9 mg/mL)
Compound: C[C@H](NC(=O)[C@H](C)NC(=O)[C@@H](N)Cc1ccccc1)C(=O)O [FAA] (H-Phe-Ala-Ala-OH)

- solubility (physchem; [3]): 8.1 mM (≈ 2.53 mg/mL)
Compound: N[C@@H](Cc1ccccc1)C(=O)N[C@@H](Cc1ccccc1)C(=O)O [FF, reference compound] (H-Phe-Phe-OH)

- solubility (physchem; [3]): 0.5 mM (≈ 0.23 mg/mL)
Compound: N[C@@H](Cc1ccccc1)C(=O)N[C@@H](Cc1ccccc1)C(=O)N[C@@H](Cc1ccccc1)C(=O)O [FFF, reference compound] (H-Phe-Phe-Phe-OH)

- solubility (physchem; [3]): 28.3 mM (≈ 7.88 mg/mL)
Compound: CC(C)C[C@H](NC(=O)[C@@H](N)Cc1ccccc1)C(=O)O [FL, reference compound] (H-Phe-Leu-OH)

- solubility (physchem; [3]): 14.5 mM (≈ 5.36 mg/mL)
Compound: NCC(=O)N[C@@H](Cc1ccccc1)C(=O)N[C@@H](Cc1ccccc1)C(=O)O [GFF, reference compound] (H-Gly-Phe-Phe-OH)

- solubility (physchem; [3]): 19.4 mM (≈ 5.4 mg/mL)
Compound: CC(C)C[C@H](N)C(=O)N[C@@H](Cc1ccccc1)C(=O)O [LF, reference compound] (H-Leu-Phe-OH)

- solubility (physchem; [3]): 2.6 mM (≈ 1.06 mg/mL)
Compound: O=C(O)[C@H](Cc1ccccc1)NC(=O)[C@H](Cc1ccccc1)NC(=O)[C@@H]1CCCN1 [PFF, reference compound] (H-Pro-Phe-Phe-OH)
